Consider one molecule from publication PMC10587872, “Virtual Screening-Accelerated Discovery of a Phosphodiesterase 9 Inhibitor with Neuroprotective Effects in the Kainate Toxicity In Vitro Model” (ACS Chemical Neuroscience, 2023).

In this assay the target is T1, PDE9 (PDE9A) (Homo sapiens, UniProt O76083).
T1 construct: full-length recombinant human PDE9
Put plainly: PDE-Glo phosphodiesterase luminescence assay with cGMP substrate, recombinant human PDE9A. Format: biochemical.

The structures appear in SMILES notation.

T1 sequence (O76083 whole entry): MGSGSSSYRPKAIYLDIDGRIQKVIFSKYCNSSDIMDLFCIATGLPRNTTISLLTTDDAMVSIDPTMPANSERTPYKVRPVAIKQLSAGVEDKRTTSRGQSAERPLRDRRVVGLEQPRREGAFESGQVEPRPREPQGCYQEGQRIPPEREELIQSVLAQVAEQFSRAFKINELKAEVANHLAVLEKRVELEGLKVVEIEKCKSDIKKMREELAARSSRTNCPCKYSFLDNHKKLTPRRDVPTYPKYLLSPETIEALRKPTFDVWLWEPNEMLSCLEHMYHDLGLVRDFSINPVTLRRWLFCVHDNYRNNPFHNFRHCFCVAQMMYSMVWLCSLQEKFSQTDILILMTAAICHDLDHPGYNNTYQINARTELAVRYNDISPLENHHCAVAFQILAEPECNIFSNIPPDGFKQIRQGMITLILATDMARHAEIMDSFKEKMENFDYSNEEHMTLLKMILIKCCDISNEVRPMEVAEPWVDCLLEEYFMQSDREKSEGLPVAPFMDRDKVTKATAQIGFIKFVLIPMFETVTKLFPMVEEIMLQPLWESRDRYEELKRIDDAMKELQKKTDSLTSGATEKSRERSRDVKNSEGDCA

In the case of `CC(C)=CCc1c2c(c3occ(-c4ccc(OS(C)(=O)=O)c(OS(C)(=O)=O)c4)c(=O)c3c1O)C=CC(C)(C)O2` [DB987], the 50% inhibitory concentration (IC50) – broadly, the concentration that inhibits the measured activity by half – was determined as 5.35 nM.
